Test results from patent publication US11084803B2, “Activators of class I histone deacetylases (HDACs) and uses thereof” (Massachusetts Institute of Technology, priority 2011, dated 2021).
“Also recorded” adds a separate entry of the source.

Columns and labels:
recombinant HDAC1 = target: T1, recombinant HDAC1 (Homo sapiens, UniProt Q13547); assay: Secondary HDAC1 microfluidics-based assay, 8-point dose response, substrate FAM-TSRHKacKL; assay type: biochemical; settings: for Emax: read-out: Maximum activation % during dose response (50 μM maximum); for AC50 / activation of up to (HDAC1): dose response 50 μM to 0.02 μM
T1 construct: FLAG (C); purchased BPS Biosciences (San Diego, Calif.); host or cells: insect cells (Sf9)
T1 sequence (Q13547 whole entry): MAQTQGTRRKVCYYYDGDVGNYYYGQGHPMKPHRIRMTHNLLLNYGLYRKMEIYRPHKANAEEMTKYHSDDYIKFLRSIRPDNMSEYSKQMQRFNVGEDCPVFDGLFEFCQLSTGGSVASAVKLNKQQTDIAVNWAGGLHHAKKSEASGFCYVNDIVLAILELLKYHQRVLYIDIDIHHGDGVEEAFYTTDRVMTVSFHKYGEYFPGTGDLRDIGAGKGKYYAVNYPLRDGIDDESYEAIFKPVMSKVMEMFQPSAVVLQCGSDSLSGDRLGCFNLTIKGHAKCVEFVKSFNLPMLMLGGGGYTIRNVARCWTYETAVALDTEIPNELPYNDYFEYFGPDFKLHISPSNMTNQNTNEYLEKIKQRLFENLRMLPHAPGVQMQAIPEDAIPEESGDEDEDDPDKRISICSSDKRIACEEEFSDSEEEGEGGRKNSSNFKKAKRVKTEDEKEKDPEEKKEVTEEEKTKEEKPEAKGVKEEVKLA

HT-22 cells [1] = assay: Etoposide-induced DNA damage stress in HT-22 cells, cell viability; assay type: cell-based; settings: 5 μM for DAC-001 and DAC-003, 10 μM for others; 3 h before 2 μM etoposide; 72 h; p<0.001
Procedure: (§1) HT-22 cells, a hippocampal neuron derived cell line, were used to model neurodegeneration. Two types of insults were used. […] Etoposide, a topoisomerase II inhibitor, stressed cells through DNA damage. These two types of stresses have been documented in neurodegenerative diseases.
Similarly, HT-22 cells were pre-incubated with compounds (5 μM for DAC-001 and DAC-003; 10 μM for others) for 3 h. Then, 2 μM etoposide was added to the culture medium. Cell viability was measured 72 h later (FIG. 5B).

DIV 14 cortical neurons = assay: Neuronal excitotoxicity model, MAP2 staining of dendrites; assay type: cell-based; settings: compound 20 h; 50 μM glutamate 1 h; p<0.01 for significant
Procedure: The neuroprotection potential of the candidate compounds were also tested using a neuronal excitoxicity model. DIV 14 cortical neurons were treated with the compounds for 20 h, 50 μM glutamate was added to the culture 1 h before processing the samples for immunocytochemistry. […] Ginkgetin was used as a positive control.

[2] = tested on: histone lysine residues known to be HDAC1 targets in HEK293T cells; assay: Histone acetylation in HEK293T cells by Western blot; assay type: cell-based, Human; settings: 10 μM or 50 μM, 20 h
Procedure: DAC compounds were added to HEK293T cells for 20 h. Vehicle was DMSO. Histones were acid-extracted and analyzed by Western blot for Ac-H3K56, Ac-H4K12, Ac-H3K14 and Ac-H2B. Histone 3 was used as the loading control.
Next, what was tested was whether a treatment of HDAC1 activators can increase HDAC1 enzymatic activity in cultured cells. Human HEK293T cells were treated with compounds at different concentrations (10 μM or 50 μM) for 20 h. Histone proteins were extracted, and Western blotting was used to analyze the acetylation of certain histone lysine residues known to be HDAC1 targets.

[3] = target: T2, Recombinant, full-length human HDAC1 (Homo sapiens, UniProt Q13547); assay: Primary HDAC1 high-throughput screen, microfluidics-based deacetylase assay, single concentration; assay type: biochemical; settings: for Average activation % during HTS (10 μM): substrate FAM-TSRHKacKL; for Percent activation (%) Replicate 1 / Percent activation (%) Replicate 2: high-throughput screening, 6 h; for Average activation % during HTS (10 μM) / Percent activation (%) Replicate 1 / Percent activation (%) Replicate 2: 10 μM
T2 construct: FLAG (C); purchased BPS Biosciences (San Diego, Calif.); host or cells: insect cells (Sf9)
T2 sequence (Q13547 whole entry): as above
Procedure: Recombinant, full-length human HDAC1 (GenBank Accession No. NM_004964) with a C-terminal FLAG tag was produced by BPS Biosciences (San Diego, Calif.) using large-scale insect cell protein expression and purification in order to support a large-scale high-throughput screen (HTS).
Compounds were tested with a reaction time of 6 h with compounds tested at a single concentration (10 μM) in duplicate. As a positive control, the biflavonoid gingketin was chosen.
Compounds were tested in duplicate at 10 μM nominal final concentration in 384-well plate format. The reference activator compound, ginkgetin (50 μM), was included in duplicates in each HTS plate as a positive control condition, 24 negative control samples (DMSO only) were included in each plate to provide for the 0% activation baseline.
Within each HTS plate, the effect of individual compounds on the enzymatic activity of HDAC1 was calculated as % change in the conversion of the peptide substrate relative to the average substrate conversion value calculated across the 24 negative control samples.

HT-22 cells [4] = assay: Glutamate-induced oxidative stress in HT-22 cells, CellTiter-Glo viability; assay type: cell-based; settings: compound 3 h before 2.5 mM glutamate; p<0.05 versus vehicle; 10 μM DAC-003
Procedure: as §1
HT-22 cells were treated with compounds for 3 h prior to the addition of 2.5 mM glutamate. Cell viability was measured by CellTiter-Glo assays (Promega) (FIG. 5A).

recombinant HDAC2 = recombinant HDAC2 (Homo sapiens, UniProt Q92769); assay: Microfluidics-based deacetylase assay with HDAC2; assay type: biochemical; settings: dose response
Chain of recombinant HDAC2 (Q92769 whole entry, species assumed): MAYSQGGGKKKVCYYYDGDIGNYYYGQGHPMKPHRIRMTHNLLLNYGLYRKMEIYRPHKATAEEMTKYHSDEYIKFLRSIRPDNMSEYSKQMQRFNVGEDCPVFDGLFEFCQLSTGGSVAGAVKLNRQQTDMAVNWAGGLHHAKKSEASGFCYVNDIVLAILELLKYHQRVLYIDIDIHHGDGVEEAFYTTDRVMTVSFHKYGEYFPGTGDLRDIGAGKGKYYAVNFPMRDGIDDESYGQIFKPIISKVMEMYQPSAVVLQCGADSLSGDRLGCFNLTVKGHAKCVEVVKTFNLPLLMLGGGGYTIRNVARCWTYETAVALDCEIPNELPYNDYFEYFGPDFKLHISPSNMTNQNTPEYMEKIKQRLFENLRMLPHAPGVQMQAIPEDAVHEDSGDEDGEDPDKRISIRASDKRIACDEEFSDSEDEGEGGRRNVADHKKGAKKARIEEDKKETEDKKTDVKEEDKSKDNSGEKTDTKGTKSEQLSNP
Procedure: (§2) Based upon the results of the HDAC1 activator screen performed, a total of 21 compounds (for structures, see FIGS. 6A to 6C) were initially selected as hits due to their ability to enhance the deacetylase activity of recombinant HDAC1. Those hits, designated as “DACs” (deacetylase activating compounds), were measured using a microfluidics-based assay with an acetylated peptidic substrate (FAM-TSRHKacKL) over a reaction time of 6 h. The 21 HTS hits plus two controls: ginkgetin (an activator) and TSA (trichostatin A, an inhibitor; for its structure, see FIG. 6A) were retested in an 8-point dose response ranging from 50 μM to 0.02 μM.
(§3) Microfluidics-based deacetylase assays were also performed using recombinant HDAC2, HDAC3, and HDAC8 to determine the selectivity of the compounds. Many of the confirmed compounds also activated HDAC2 isoform to a similar or even greater extent. Some compounds activated HDAC3 and inhibited the HDAC8 isoform.

recombinant HDAC3 = recombinant HDAC3 (Homo sapiens, UniProt O15379); assay: Microfluidics-based deacetylase assay with HDAC3; assay type: biochemical; design: dose or concentration left out as unconfirmed; settings: read-out: maximal effect (activation of HDAC3)
Chain of recombinant HDAC3 (O15379 whole entry, species assumed): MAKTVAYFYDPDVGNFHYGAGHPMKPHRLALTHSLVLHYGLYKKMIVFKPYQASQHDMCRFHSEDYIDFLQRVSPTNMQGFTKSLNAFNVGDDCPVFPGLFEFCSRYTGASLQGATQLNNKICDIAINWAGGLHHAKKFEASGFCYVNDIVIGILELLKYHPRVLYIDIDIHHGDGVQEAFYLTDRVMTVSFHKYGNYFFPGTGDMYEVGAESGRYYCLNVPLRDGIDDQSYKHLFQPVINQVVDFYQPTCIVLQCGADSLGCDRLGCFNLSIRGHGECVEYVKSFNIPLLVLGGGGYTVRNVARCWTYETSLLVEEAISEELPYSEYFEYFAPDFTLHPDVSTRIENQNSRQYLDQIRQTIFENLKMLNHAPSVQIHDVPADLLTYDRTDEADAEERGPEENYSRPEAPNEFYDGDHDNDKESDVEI
Chain of recombinant HDAC3 (Q9Y618 395-489 partner limits assumed, species assumed): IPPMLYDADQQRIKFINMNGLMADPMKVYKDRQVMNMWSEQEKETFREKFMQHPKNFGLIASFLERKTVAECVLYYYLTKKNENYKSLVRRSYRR
Procedure: as §2, §3

[5] = 8-point dose response 50 μM to 0.02 μM, 6 h

Compound	Emax (recombinant HDAC1; [5]) [%]	AC50 (recombinant HDAC1) [µM]	activation of up to (HDAC1) (recombinant HDAC1)	Average activation % during HTS (10 μM) [3] [%]	conversion of peptidic substrate FAM-TSRHKacKL to FAM-TSRHKKL (microfluidic fluorescence reader trace) ([3]; FIG. 3A, 3B)	Percent activation (%) Replicate 1 [3] [%]	Percent activation (%) Replicate 2 [3] [%]	Emax at 10 µM (recombinant HDAC1; plateau at 10 μM, read-out: maximal effect (activation of HDAC1)) [%]	Average effect (positive control) ([3]; ginkgetin 50 μM, 580 measurements, standard deviation: 4%) [% activation]	AC50 (recombinant HDAC2) [µM]	Emax (recombinant HDAC2; read-out: maximal effect (activation of HDAC2)) [%]	Emax (recombinant HDAC3) [%]	Maximum activation % during dose response (50 μM maximum) (recombinant HDAC1; [5]) [%]	protection against DNA damage stress (cell viability) (HT-22 cells [1])	protection of neurons from excitotoxicity (retention of dendrites) (DIV 14 cortical neurons)	levels of acetylated histones (Ac-H3K56, Ac-H3K14, Ac-H4K12, Ac-H2B) [2]	protection from oxidative stress (cell viability) (HT-22 cells [4])	effect on HDAC isoforms in dose response (recombinant HDAC1; all HDAC isoforms)
Cc1ccc(C(=O)NC(=S)Nc2ccc(-c3ccc(CO)o3)cc2)cc1 [DAC-001]	287	4.05	up to 287%	130.5	increased conversion	122.6	138.4	–	–	–	–	–	–	significantly protect cells from DSB-induced cell death; also recorded: significant protection	significant protection	reduced the levels of Ac-H3K56, Ac-H3K14, Ac-H4K12 and Ac-H2B	–	–
O=C(NC(=S)Nc1ccc(-c2ccc(CO)o2)cc1)c1cccs1 [DAC-002]	221	8.31	≤ 221%	54.7	–	52.7	56.6	–	–	–	–	–	–	significantly protect cells from DSB-induced cell death; also recorded: significant protection	trend of protection	reduced the levels of Ac-H3K56, Ac-H3K14, Ac-H4K12 and Ac-H2B	–	–
Cc1cccc2c1[nH]c1nc(N/N=C/c3ccc(O)c(O)c3)nnc12 [DAC-003]	34	–	–	24.6	–	24.2	24.9	–	–	–	–	–	–	significantly protect cells from DSB-induced cell death; also recorded: significant protection	trend of protection	reduced the levels of Ac-H3K56, Ac-H3K14, Ac-H4K12 and Ac-H2B	significantly protect cells from oxidative insults; also recorded: significantly protect cells from oxidative stress	–
CCC(=O)C1(Sc2nc3ccccc3[nH]2)CC(C)(C)OC1=O (stereo not shown) [DAC-009]	12	–	–	18.7	–	15.1	22.2	–	–	–	–	–	–	significantly protect cells from DSB-induced cell death; also recorded: significant protection	–	reduced the levels of Ac-H3K56, Ac-H3K14, Ac-H4K12 and Ac-H2B	–	–
COc1ccc(CNc2cc(C)ccc2C)c(OC)c1 [DAC-012]	26	–	–	17.7	–	17.5	17.9	–	–	–	–	–	–	significantly protect cells from DSB-induced cell death; also recorded: significant protection	–	–	trend of protection	–

Continued, in another order:

Emax (recombinant HDAC1; [5]) [%]	AC50 (recombinant HDAC1) [µM]	activation of up to (HDAC1) (recombinant HDAC1)	Average activation % during HTS (10 μM) [3] [%]	conversion of peptidic substrate FAM-TSRHKacKL to FAM-TSRHKKL (microfluidic fluorescence reader trace) ([3]; FIG. 3A, 3B)	Percent activation (%) Replicate 1 [3] [%]	Percent activation (%) Replicate 2 [3] [%]	Emax at 10 µM (recombinant HDAC1; plateau at 10 μM, read-out: maximal effect (activation of HDAC1)) [%]	Average effect (positive control) ([3]; ginkgetin 50 μM, 580 measurements, standard deviation: 4%) [% activation]	AC50 (recombinant HDAC2) [µM]	Emax (recombinant HDAC2; read-out: maximal effect (activation of HDAC2)) [%]	Emax (recombinant HDAC3) [%]	Maximum activation % during dose response (50 μM maximum) (recombinant HDAC1; [5]) [%]	Compound	protection against DNA damage stress (cell viability) (HT-22 cells [1])	protection of neurons from excitotoxicity (retention of dendrites) (DIV 14 cortical neurons)	levels of acetylated histones (Ac-H3K56, Ac-H3K14, Ac-H4K12, Ac-H2B) [2]	protection from oxidative stress (cell viability) (HT-22 cells [4])	effect on HDAC isoforms in dose response (recombinant HDAC1; all HDAC isoforms)
23	–	–	25.6	–	–	–	20	26	28	165	20	–	COc1cc(O)c2c(=O)cc(-c3ccc(OC)c(-c4c(O)cc(O)c5c(=O)cc(-c6ccc(O)cc6)oc45)c3)oc2c1 [ginkgetin, reference compound]	–	–	–	–	–
–	–	–	0	–	–	–	–	–	–	–	–	0	trichostatin A [reference compound]	–	–	–	–	dose dependent inhibition of all HDAC isoforms
